This note sets out measurements from US10206394B2, “Herbicidal compounds” (Syngenta Participations AG, priority 2014, dated 2019).

SMILES strings stand for the structures. Like-named read-outs stand apart in the source and are kept apart here.

What all share (assay): Glasshouse assay for herbicidal activity (pre- and post-emergence), percentage phytotoxicity
Type in all cases: in vivo

One assay relates to Lolium perenne (LOLPE). To be noted: Lolium perenne. The procedure, abridged:
(§1)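 Sow seed in standard soil in pots; apply test herbicide after 1 day (PRE) or about 12 days (POST). Grow on in the glasshouse, watering twice daily, cool-season species at 20/16 °C and warm-season at 24/18 °C. Score visible damage (0–100%) at 20 or 15 DAA respectively.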

In assay [1] the test system is Alopecurus myosuroides (ALOMY). To be noted: Alopecurus myosuroides. The procedure, abridged:
as §1

The subject of assay [2] is Echinochloa crus-galli (ECHCG). To be noted: Echinochloa crus-galli. The method, boiled down:
as §1

Another assay relates to Avena fatua (AVEFA). The conditions noted are these: Avena fatua. The method, boiled down:
as §1

Where [3] appears, read: post-emergence, 360 h, 250 g/ha, post-emergence, 15 DAA, visual assessment (100%=total damage, 0%=no damage), read-out: Post-emergence herbicidal activity (percentage phytotoxicity) LOLPE POST.
[4] abbreviates: pre-emergence, 480 h, 250 g/ha, pre-emergence, 20 DAA, visual assessment (100%=total damage, 0%=no damage), read-out: Pre-emergence herbicidal activity (percentage phytotoxicity) LOLPE PRE.
The mark [5] stands for this setting: post-emergence, 360 h, 250 g/ha, post-emergence, 15 DAA, visual assessment (100%=total damage, 0%=no damage), read-out: Post-emergence herbicidal activity (percentage phytotoxicity) ALOMY POST.
[6] abbreviates: pre-emergence, 480 h, 250 g/ha, pre-emergence, 20 DAA, visual assessment (100%=total damage, 0%=no damage), read-out: Pre-emergence herbicidal activity (percentage phytotoxicity) ALOMY PRE.
Setting [7] is: post-emergence, 360 h, 250 g/ha, post-emergence, 15 DAA, visual assessment (100%=total damage, 0%=no damage), read-out: Post-emergence herbicidal activity (percentage phytotoxicity) ECHCG POST.
Setting [8] is: pre-emergence, 480 h, 250 g/ha, pre-emergence, 20 DAA, visual assessment (100%=total damage, 0%=no damage), read-out: Pre-emergence herbicidal activity (percentage phytotoxicity) ECHCG PRE.
Setting [9] is: post-emergence, 360 h, 250 g/ha, post-emergence, 15 DAA, visual assessment (100%=total damage, 0%=no damage), read-out: Post-emergence herbicidal activity (percentage phytotoxicity) AVEFA POST.
Where [10] appears, read: pre-emergence, 480 h, 250 g/ha, pre-emergence, 20 DAA, visual assessment (100%=total damage, 0%=no damage), read-out: Pre-emergence herbicidal activity (percentage phytotoxicity) AVEFA PRE.
The mark [11] stands for this setting: post-emergence, 360 h, POST-emergence, rate 250 g/ha, visual score 15 DAA (100%=total damage, 0%=no damage), read-out: Post-emergence herbicidal activity (percentage phytotoxicity) LOLPE POST.
The mark [12] stands for this setting: pre-emergence, 480 h, PRE-emergence, rate 250 g/ha, visual score 20 DAA (100%=total damage, 0%=no damage), read-out: Pre-emergence herbicidal activity (percentage phytotoxicity) LOLPE PRE.
The mark [13] stands for this setting: post-emergence, 360 h, POST-emergence, rate 250 g/ha, visual score 15 DAA (100%=total damage, 0%=no damage), read-out: Post-emergence herbicidal activity (percentage phytotoxicity) ALOMY POST.
[14] abbreviates: pre-emergence, 480 h, PRE-emergence, rate 250 g/ha, visual score 20 DAA (100%=total damage, 0%=no damage), read-out: Pre-emergence herbicidal activity (percentage phytotoxicity) ALOMY PRE.
The mark [15] stands for this setting: post-emergence, 360 h, POST-emergence, rate 250 g/ha, visual score 15 DAA (100%=total damage, 0%=no damage), read-out: Post-emergence herbicidal activity (percentage phytotoxicity) ECHCG POST.
The mark [16] stands for this setting: pre-emergence, 480 h, PRE-emergence, rate 250 g/ha, visual score 20 DAA (100%=total damage, 0%=no damage), read-out: Pre-emergence herbicidal activity (percentage phytotoxicity) ECHCG PRE.
Setting [17] is: post-emergence, 360 h, POST-emergence, rate 250 g/ha, visual score 15 DAA (100%=total damage, 0%=no damage), read-out: Post-emergence herbicidal activity (percentage phytotoxicity) AVEFA POST.
[18] abbreviates: pre-emergence, 480 h, PRE-emergence, rate 250 g/ha, visual score 20 DAA (100%=total damage, 0%=no damage), read-out: Pre-emergence herbicidal activity (percentage phytotoxicity) AVEFA PRE.

`CC(C)=CCNC(=O)CC1CC(=O)C(c2c(C)cc(C)cc2C)C1=O` (stereo not shown) [Compound B163]: the pest or weed control at 250 g/ha in the assay on Lolium perenne (LOLPE) (setting [3]) was determined as 80%; with Lolium perenne (LOLPE) (setting [4]), 100%; in assay [1] (setting [5]), 80%; in assay [1] (setting [6]) it was 90%; in assay [2] (setting [7]) it was 90%; in assay [2] (setting [8]), 90%. Moreover, the figures for the pest or weed control at 250 g/ha with Avena fatua (AVEFA) (setting [9]) and in the assay on Avena fatua (AVEFA) (setting [10]) were 80% and 50%, respectively.

`CCc1cc(C)cc(C)c1C1C(=O)CC(CC(=O)N2CCOCC2)C1=O` (stereo not shown) [Compound B169]: the pest or weed control at 250 g/ha (in the assay on Lolium perenne (LOLPE) (setting [11]); in the assay on Lolium perenne (LOLPE) (setting [12]); in assay [1] (setting [13]); in assay [1] (setting [14]); in assay [2] (setting [15]); in assay [2] (setting [16])) was 100% each time. Also, the pest or weed control at 250 g/ha in the assay with Avena fatua (AVEFA) (setting [17]) and in the assay on Avena fatua (AVEFA) (setting [18]) was 100% in each case.

Turning to `Cc1cc(C)c(C2C(=O)CC(CC(=O)NCC#N)C2=O)c(C)c1` (stereo not shown) [Compound A83], the pest or weed control at 250 g/ha in the assay on Lolium perenne (LOLPE) (post-emergence, 360 h, Rate 250 g/ha, post-emergence, assessed visually 15 DAA, 100%=total damage, 0%=no damage, read-out: Post-emergence herbicidal activity (percentage phytotoxicity) LOLPE POST) turned out to be 30%; in assay [1] (post-emergence, 360 h, Rate 250 g/ha, post-emergence, assessed visually 15 DAA, 100%=total damage, 0%=no damage, read-out: Post-emergence herbicidal activity (percentage phytotoxicity) ALOMY POST) it was 50%; in assay [2] (post-emergence, 360 h, Rate 250 g/ha, post-emergence, assessed visually 15 DAA, 100%=total damage, 0%=no damage, read-out: Post-emergence herbicidal activity (percentage phytotoxicity) ECHCG POST), 70%; in the assay on Avena fatua (AVEFA) (post-emergence, 360 h, Rate 250 g/ha, post-emergence, assessed visually 15 DAA, 100%=total damage, 0%=no damage, read-out: Post-emergence herbicidal activity (percentage phytotoxicity) AVEFA POST) it was 10%.

With `COCCN(CCOC)C(=O)CC1CC(=O)C(c2c(C)cc(-c3ncc(F)cn3)cc2C)C1=O` (stereo not shown) [Compound B281], the pest or weed control at 250 g/ha with Lolium perenne (LOLPE) (setting [11]) came out at 90%; in the assay with Lolium perenne (LOLPE) (setting [12]), 80%; in assay [1] (setting [13]) it was 100%; in assay [1] (setting [14]), 80%; in assay [2] (setting [15]) it was 100%; in assay [2] (setting [16]) it was 100%. Further, the figures for the pest or weed control at 250 g/ha in the assay on Avena fatua (AVEFA) (setting [17]) and in the assay with Avena fatua (AVEFA) (setting [18]) were 100% and 80%, respectively.

In the case of `Cc1cc(-n2cc(Cl)cn2)cc(C)c1C1C(=O)CC(CC(=O)NCc2cccc(Br)c2)C1=O` (stereo not shown) [Compound B312], the pest or weed control at 250 g/ha in the assay with Lolium perenne (LOLPE) (setting [11]) worked out at 80%; in the assay on Lolium perenne (LOLPE) (setting [12]), 70%; in assay [1] (setting [13]) it was 90%; in assay [1] (setting [14]), 10%; in assay [2] (setting [15]), 100%; in assay [2] (setting [16]) it was 70%. The values for the pest or weed control at 250 g/ha in the assay with Avena fatua (AVEFA) (setting [17]) and in the assay with Avena fatua (AVEFA) (setting [18]) were 100% and 10%, respectively.

In the case of `C/C=C/c1cc(C)c(C2C(=O)CC(CC(=O)NC(C)C)C2=O)c(CC)c1` (stereo not shown) [Compound B192], the pest or weed control at 250 g/ha (with Lolium perenne (LOLPE) (setting [11]); in the assay with Lolium perenne (LOLPE) (setting [12]); in assay [1] (setting [13]); in assay [1] (setting [14]); in assay [2] (setting [15]); in assay [2] (setting [16])) was 100% each time. Further, the pest or weed control at 250 g/ha came out at 100% in the assay with Avena fatua (AVEFA) (setting [17]) and 90% in the assay on Avena fatua (AVEFA) (setting [18]).

Consider `COCC(C)(C)NC(=O)CC1CC(=O)C(c2c(C)cc(C)cc2C)C1=O` (stereo not shown) [Compound B180], for which the pest or weed control at 250 g/ha was found to be 80% with Lolium perenne (LOLPE) (setting [11]); 90% in the assay on Lolium perenne (LOLPE) (setting [12]); 90% in assay [1] (setting [13]); 90% in assay [1] (setting [14]); 90% in assay [2] (setting [15]); 90% in assay [2] (setting [16]). For the same molecule, the pest or weed control at 250 g/ha was 90% in the assay on Avena fatua (AVEFA) (setting [17]) and 60% in the assay on Avena fatua (AVEFA) (setting [18]).

On to `C#CCN(C)C(=O)CC1CC(=O)C(c2c(C)cc(C)cc2CC)C1=O` (stereo not shown) [Compound B260], for which the pest or weed control at 250 g/ha was 100% in the assay with Lolium perenne (LOLPE) (setting [11]); 100% in the assay with Lolium perenne (LOLPE) (setting [12]); 100% in assay [1] (setting [13]); 90% in assay [1] (setting [14]); 100% in assay [2] (setting [15]); 100% in assay [2] (setting [16]). Further, the pest or weed control at 250 g/ha in the assay with Avena fatua (AVEFA) (setting [17]) came out at 100%; in the assay on Avena fatua (AVEFA) (setting [18]), 80%.

Take `Cc1cc(-c2ncc(Cl)cn2)cc(C)c1C1C(=O)CC(CC(=O)N(C)C(C)(C)C)C1=O` (stereo not shown) [Compound B348]: the pest or weed control at 250 g/ha came out at 100% with Lolium perenne (LOLPE) (post-emergence, 360 h, Rate 250 g/ha, post-emergence, visual assessment 15 DAA, 100%=total damage, 0%=no damage, read-out: Post-emergence herbicidal activity (percentage phytotoxicity) LOLPE POST); 90% with Lolium perenne (LOLPE) (pre-emergence, 480 h, Rate 250 g/ha, pre-emergence, visual assessment 20 DAA, 100%=total damage, 0%=no damage, read-out: Pre-emergence herbicidal activity (percentage phytotoxicity) LOLPE PRE); 100% in assay [1] (post-emergence, 360 h, Rate 250 g/ha, post-emergence, visual assessment 15 DAA, 100%=total damage, 0%=no damage, read-out: Post-emergence herbicidal activity (percentage phytotoxicity) ALOMY POST); 80% in assay [1] (pre-emergence, 480 h, Rate 250 g/ha, pre-emergence, visual assessment 20 DAA, 100%=total damage, 0%=no damage, read-out: Pre-emergence herbicidal activity (percentage phytotoxicity) ALOMY PRE); 100% in assay [2] (post-emergence, 360 h, Rate 250 g/ha, post-emergence, visual assessment 15 DAA, 100%=total damage, 0%=no damage, read-out: Post-emergence herbicidal activity (percentage phytotoxicity) ECHCG POST); 100% in assay [2] (pre-emergence, 480 h, Rate 250 g/ha, pre-emergence, visual assessment 20 DAA, 100%=total damage, 0%=no damage, read-out: Pre-emergence herbicidal activity (percentage phytotoxicity) ECHCG PRE). In addition, the pest or weed control at 250 g/ha is 100% in the assay on Avena fatua (AVEFA) (post-emergence, 360 h, Rate 250 g/ha, post-emergence, visual assessment 15 DAA, 100%=total damage, 0%=no damage, read-out: Post-emergence herbicidal activity (percentage phytotoxicity) AVEFA POST) and 80% in the assay with Avena fatua (AVEFA) (pre-emergence, 480 h, Rate 250 g/ha, pre-emergence, visual assessment 20 DAA, 100%=total damage, 0%=no damage, read-out: Pre-emergence herbicidal activity (percentage phytotoxicity) AVEFA PRE).

Turning to `Cc1cc(-c2ncc(Cl)cc2F)cc(C)c1C1C(=O)CC(CC(=O)N2CCOCC2)C1=O` (stereo not shown) [Compound B93], the pest or weed control at 250 g/ha with Lolium perenne (LOLPE) (setting [3]) worked out at 100%; with Lolium perenne (LOLPE) (setting [4]), 90%; in assay [1] (setting [5]), 100%; in assay [1] (setting [6]), 80%; in assay [2] (setting [7]), 100%; in assay [2] (setting [8]), 100%. Besides, the pest or weed control at 250 g/ha with Avena fatua (AVEFA) (setting [9]) amounted to 100%; with Avena fatua (AVEFA) (setting [10]) it was 70%.
